Paper PMC9319560 (Viruses, 2022)
“Also recorded” adds a separate entry of the source. Like-named read-outs stand apart in the source and are kept apart here. No end group written: not given here.

How the values were obtained:
[1] = test system: normal human epidermal keratinocytes (NHEK); assay: XTT cell viability assay on NHEK; type: cell-based; details: concentrations up to 10 µg/mL (1 to 20 µg/mL tested), 48 h incubation, compared with non-treated cells, mean of at least 3 independent experiments
[2] = test system: normal human epidermal keratinocytes (NHEK); assay: LDH release assay on NHEK; type: cell-based; details: concentrations up to 10 µg/mL (1 to 20 µg/mL tested), 48 h per b34/b35 (24 h per b9), compared with non-treated cells, mean of at least 3 independent experiments
[3] = test system: viral envelope; details: previous studies; cited from earlier work
[4] = test system: human primary keratinocytes (NHEK) infected by WNV; assay: Inflammatory marker mRNA expression in NHEK infected with WNV, RT-qPCR; type: cell-based; details: WNV MOI 0.1, 24 h, 1 or 10 µg/mL peptide, versus WNV alone, similar trend, fold changes less marked, 5 independent experiments
[5] = test system: West Nile virus (WNV); details: for reduction in the viral titer (factor): WNV inoculum 10^5.27 TCID50/mL pre-incubated 1 h at 37 °C (legend: 2 h), residual titer on Vero cells, versus WNV incubated alone, 5 independent experiments
[6] = test system: viperin (RSAD2); assay: Viperin; type: cell-based, human; details: NHEK, WNV MOI 0.1, 48 h, immunofluorescence, 3 independent experiments
[7] = test system: pro-inflammatory cytokine release; details: cell-specific and concentration-dependent; cell supernatant; cited from earlier work
[8] = test system: West Nile virus (WNV); assay: WNV RNA quantification by RT-qPCR in infected human primary keratinocytes; type: cell-based; details: NHEK, WNV MOI 0.1, 24 h; for viral load in the cell monolayers: peptide 1 or 10 µg/mL added 1 h before infection, versus untreated; for effect on WNV replication in human primary keratinocytes: peptide 1 or 10 µg/mL, viral load in monolayer and supernatant by RT-qPCR
[9] = test system: human primary keratinocytes (NHEK); type: cell-based; details: 3 h, RT-qPCR; for pro-inflammatory effects of the peptide alone (mRNA of inflammatory markers): peptide alone 0.1, 1 and 10 µg/mL, 6 independent experiments (Figure S1)
[10] = test system: human immunodeficiency virus; details: concentration-dependent antiviral effect against human immunodeficiency virus; cited from earlier work
[11] = test system: DENV; details: pretreatment by 30 µg/mL of peptide; cited from earlier work
[12] = test system: human primary keratinocytes (NHEK); assay: Inflammatory marker mRNA expression in NHEK stimulated with poly(I:C), RT-qPCR; type: cell-based; details: NHEK stimulated with 0.1 µg/mL poly(I:C) alone, 3 h
[13] = 1 µg/mL peptide, versus WNV alone, p < 0.05
[14] = whatever the concentration of the peptide (1 or 10 µg/mL)
[15] = RT-qPCR, 5 independent experiments

Row | Substance | keratinocyte viability (XTT) [1] | keratinocyte viability (LDH release) [2] | concentration from which degradation of the viral envelope was observed [3] | expression of ISGs and inflammatory markers (mRNA) during WNV infection [4] | reduction in the viral titer (factor) ([5]; 1 µg/mL peptide) | reduction in the viral titer (factor) ([5]; 10 µg/mL peptide) | reduction in the viral infectious titer ([5]; WNV strain incubated with peptide, concentration not given) | RSAD2 protein expression [6, 13] | RSAD2 protein expression [6, 14] | concentration from which decreased pro-inflammatory cytokine release was seen [7] | decrease of viral RNA in the cell supernatant ([8]; 10 µg/mL peptide added 1 h before infection, RT-qPCR, versus untreated cells, 5 independent experiments, p < 0.05) | viral load in the cell monolayers [8, 15] | effect on WNV replication in human primary keratinocytes [8] | pro-inflammatory effects of the peptide alone (mRNA of inflammatory markers) [9] | concentration at which the antiviral effect is significant [10] | DENV titer [11] | CXCL-8 mRNA expression, peptide alone ([9]; 10 µg/mL peptide alone, p < 0.05 (Figure S1)) | inflammatory response of NHEK [12]
1 | LL-37 | greater than or equal to 90% | greater than or equal to 90% | ≥ 10 µg/mL | not significant | 14 | 95 | 2 log10 | significantly increased | enhanced | ≥ 25 µg/mL | 5.5 fold | No significant difference | inhibits WNV replication | no significant pro-inflammatory effects |  |  |  | 
2 | hBD-3 (GIINTLQKYYCRVRGGRCAVLSCLPKEEQIGKCSTRGRKCCRRKK; ends and bridges not checked; cysteine pairing not given here; UniProt P81534 23-67, looked up) [type 3 human β-defensin, skin antimicrobial peptide; purchased from PeproTech] | greater than or equal to 90% | greater than or equal to 90% |  |  |  |  |  | significantly increased | enhanced |  |  | No significant difference | does not seem to have any effect; also recorded: not reduced | no significant pro-inflammatory effects | greater than 25 µg/mL | did not result in a significant decrease | notable exception | 
3 | poly(I:C) |  |  |  |  |  |  |  |  |  |  |  |  |  |  |  |  |  | elicited an inflammatory response
